Data: patent US20250270206A1, “COMPOSITIONS AND METHODS FOR INHIBITION OF RAS” (TheRas, Inc., priority 2022, published 2025)

What was measured:
[1] = molecular target: T1, GDP-loaded KRAS4b (amino acids 1-169) G12C/C118S (Homo sapiens, UniProt P01116, C118S/G12C); assay: MALDI-TOF MS covalent Cys12 modification, GDP-loaded KRAS G12C; type: binding; settings: 15 minutes reaction time, 1 μM protein, 1:2.5 protein to compound ratio
T1 construct: KRAS4b (amino acids 1-169) G12C/C118S protein; made in house
Method in brief: (§1)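 1 μM KRAS4b(1-169) G12C/C118S loaded with GTP, GppNHp or GDP in 20 mM HEPES, 150 mM NaCl, 1 mM MgCl2, pH 7.3, treated at a 1:2.5 protein:compound ratio in the dark at room temperature. Linear-mode MALDI-TOF; percent modification = adduct peak height over total protein peak heights, at 15 min.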

[2] = molecular target: T2, GTP-loaded KRAS4b (amino acids 1-169) G12C/C118S (Homo sapiens, UniProt P01116, C118S/G12C); assay: MALDI-TOF MS covalent Cys12 modification, GTP-loaded KRAS G12C; type: binding; settings: 15 minutes reaction time, 1 μM protein, 1:2.5 protein to compound ratio
T2 construct: KRAS4b (amino acids 1-169) G12C/C118S protein; made in house
Method in brief: as §1

[3] = molecular target: T3, Avi-KRAS G12C (1-169) GppNHp/RAF1 RBD-3×FLAG (52-151) (Homo sapiens, UniProt P01116, G12C); assay: KRAS G12C-effector (RAF1 RBD) protein:protein interaction HTRF disruption assay; type: biochemical; settings: PPI HTRF
T3 construct: Avi-KRAS G12C (1-169) GppNHp
Method in brief: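 50 nM Avi-KRAS G12C (1-169) loaded with GppNHp, then 75 nM RAF1 RBD-3×FLAG, then HTRF detection mix, each step 1 h at room temperature. Buffer was 50 mM Tris pH 7.5, 100 mM NaCl, 5 mM MgCl2, 0.1% BSA, 0.01% Tween 20, 10% DMSO. Compounds titrated 30-0.02 μM (3× series). Read at 615 nm emission, reported as % activity vs DMSO (100%).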

[4] = tested on: pERK in NCI-H358 cells; assay: Cell-based pERK HTRF assay; settings: Homo sapiens, 0.5 h, 30 min incubation
Method in brief: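 KRAS G12C NCI-H358 cells in RPMI/10% FBS treated 30 min with compound, 9-point 3-fold series from 75 μM final top, 0.25% DMSO. Lysates read for phospho-ERK by HTRF (d2/Eu cryptate antibodies, 615 nm emission) after 4–24 h room-temperature incubation.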

[5] = molecular target: T4, GppNHp-loaded KRAS4b (amino acids 1-169) G12C/C118S (Homo sapiens, UniProt P01116, C118S/G12C); assay: MALDI-TOF MS covalent Cys12 modification, GppNHp-loaded KRAS G12C; type: binding; settings: 15 minutes reaction time, 1 μM protein, 1:2.5 protein to compound ratio
T4 construct: KRAS4b (amino acids 1-169) G12C/C118S protein; made in house
Method in brief: as §1

| SMILES | GDP-KRAS G12C percent of modification [1] | GTP-KRAS G12C percent of modification [2] | IC50 [3] | IC50 [4] | GppNHp-KRAS G12C percent of modification [5] |
| --- | --- | --- | --- | --- | --- |
| C=CC(=O)N1CC[C@@H](N(C)c2nc(OC[C@@]34CCCN3C[C@H](F)C4)nc3cc(-c4ccc(F)c5sc(N)c(C#N)c45)c(C(F)(F)F)nc23)[C@H]1C [Compound 15] | A (percent of modification ≥70%) | A (percent of modification ≥70%) | ≤ 0.5 µM | ≤ 0.1 µM | A (percent of modification ≥70%) |
| C=CC(=O)N1CC[C@@H](N(C)c2nc(OC[C@@]34CCCN3C[C@H](F)C4)nc3c(F)c(-c4ccc(F)c5sc(N)c(C#N)c45)ncc23)[C@H]1C [Compound 17, 4-(4-(((2R,3R)-1-acryloyl-2-methylpyrrolidin-3-yl)(methyl)amino)-8-fluoro-2-(((2R,7aS)-2-fluorotetrahydro-1H-pyrrolizin-7a(5H)-yl)methoxy)pyrido[4,3-d]pyrimidin-7-yl)-2-amino-7-fluorobenzo[b]thiophene-3-carbonitrile] | A (percent of modification ≥70%) | A (percent of modification ≥70%) | ≤ 0.5 µM | ≤ 0.1 µM | A (percent of modification ≥70%) |
| C=CC(=O)N1C[C@@H](F)[C@@H](N(CC)c2nc(OC[C@@]34CCCN3C[C@H](F)C4)nc3c(F)c(-c4ccc(F)c5sc(N)c(C#N)c45)ncc23)C1 [Compound 18] | A (percent of modification ≥70%) | A (percent of modification ≥70%) | ≤ 0.5 µM | ≤ 0.1 µM | A (percent of modification ≥70%) |
| C=CC(=O)N1CCC(N(CC)c2nc(OC[C@@]34CCCN3C[C@H](F)C4)nc3c(F)c(-c4ccc(F)c5sc(N)c(C#N)c45)ncc23)[C@H]1C (stereo partly shown) [Compound 19] | A (percent of modification ≥70%) | A (percent of modification ≥70%) | ≤ 0.5 µM | ≤ 0.1 µM | A (percent of modification ≥70%) |
| C=CC(=O)N1CCC(N(C)c2nc(OC[C@@H]3C[C@@H](OC)CN3C)nc3c(F)c(-c4ccc(F)c5sc(N)c(C#N)c45)ncc23)[C@H]1COC (stereo partly shown) [Compound 20] | A (percent of modification ≥70%) | A (percent of modification ≥70%) | ≤ 0.5 µM | 0.1 to 1 µM | A (percent of modification ≥70%) |
| C=CC(=O)N1CCC(N(C)c2nc(OC[C@@H]3C[C@@H](F)CN3C)nc3c(F)c(-c4ccc(F)c5sc(N)c(C#N)c45)ncc23)[C@H]1C (stereo partly shown) [Compound 23] | A (percent of modification ≥70%) | A (percent of modification ≥70%) | ≤ 0.5 µM | 0.1 to 1 µM | A (percent of modification ≥70%) |
| C=CC(=O)N1CCC(N(CC)c2nc(OC[C@@]34CCCN3C[C@H](F)C4)nc3c(F)c(-c4ccc(F)c5sc(N)c(C#N)c45)ncc23)[C@H]1COC (stereo partly shown) [Compound 25] | A (percent of modification ≥70%) | A (percent of modification ≥70%) | ≤ 0.5 µM | 0.1 to 1 µM | A (percent of modification ≥70%) |
| C=CC(=O)N1CCC(N(C)c2nc(OC[C@@H]3C[C@@H](F)CN3C)nc3c(F)c(-c4ccc(F)c5sc(N)c(C#N)c45)ncc23)[C@H]1COC (stereo partly shown) [Compound 27] | A (percent of modification ≥70%) | A (percent of modification ≥70%) | ≤ 0.5 µM | 0.1 to 1 µM | A (percent of modification ≥70%) |
| C=CC(=O)N1CCC(N(C)c2nc(OC[C@@H]3C[C@@H](OC)CN3C)nc3c(F)c(-c4ccc(F)c5sc(N)c(C#N)c45)ncc23)[C@H]1C (stereo partly shown) [Compound 28] | A (percent of modification ≥70%) | A (percent of modification ≥70%) | ≤ 0.5 µM | 0.1 to 1 µM | A (percent of modification ≥70%) |
| C=CC(=O)N1CCC(N(CC)c2nc(OC[C@@]34CCCN3C[C@H](F)C4)nc3c(Cl)c(-c4ccc(F)c5sc(N)c(C#N)c45)ncc23)[C@H]1COC (stereo partly shown) [Compound 30] | A (percent of modification ≥70%) | A (percent of modification ≥70%) | ≤ 0.5 µM | 0.1 to 1 µM | A (percent of modification ≥70%) |
| C=CC(=O)N1CCC(N(CC)c2nc(OC[C@@]34CCCN3C[C@H](F)C4)nc3c(Cl)c(-c4ccc(F)c5sc(N)c(C#N)c45)ncc23)[C@H]1C (stereo partly shown) [Compound 37] | A (percent of modification ≥70%) | A (percent of modification ≥70%) | ≤ 0.5 µM | ≤ 0.1 µM | A (percent of modification ≥70%) |
| C=CC(=O)N1CCC(N(C)c2nc(OC[C@@]34CCCN3C[C@H](F)C4)nc3c(Cl)c(-c4ccc(F)c5sc(N)c(C#N)c45)ncc23)[C@H]1CC (stereo partly shown) [Compound 38] | A (percent of modification ≥70%) | A (percent of modification ≥70%) | ≤ 0.5 µM | ≤ 0.1 µM | A (percent of modification ≥70%) |
| C=CC(=O)N1CCC(N(C)c2nc(OC[C@@]34CCCN3C[C@H](F)C4)nc3c(F)c(-c4ccc(F)c5sc(N)c(C#N)c45)ncc23)[C@H]1CC (stereo partly shown) [Compound 39] | A (percent of modification ≥70%) | A (percent of modification ≥70%) | ≤ 0.5 µM | 0.1 to 1 µM | A (percent of modification ≥70%) |
| C=CC(=O)N1CCC(N(CC)c2nc(OC[C@@]34CCCN3C[C@H](F)C4)nc3c(F)c(-c4ccc(F)c5sc(N)c(C#N)c45)ncc23)[C@H]1CC (stereo partly shown) [Compound 40] | A (percent of modification ≥70%) | A (percent of modification ≥70%) | ≤ 0.5 µM | 0.1 to 1 µM | A (percent of modification ≥70%) |
| C=CC(=O)N1CCC(N(CC)c2nc(OC[C@@]34CCCN3C[C@H](F)C4)nc3c(Cl)c(-c4ccc(F)c5sc(N)c(C#N)c45)ncc23)[C@H]1CC (stereo partly shown) [Compound 41] | A (percent of modification ≥70%) | A (percent of modification ≥70%) | ≤ 0.5 µM | 0.1 to 1 µM | A (percent of modification ≥70%) |
| C=CC(=O)N1CC[C@@H](N(C)c2nc(OC[C@@]34CCCN3C[C@H](F)C4)nc3c(F)c(-c4ccc(F)c5sc(N)c(C#N)c45)ncc23)[C@H]1CC [Compound 42] | A (percent of modification ≥70%) | A (percent of modification ≥70%) | ≤ 0.5 µM | 0.1 to 1 µM | A (percent of modification ≥70%) |
| C=CC(=O)N1CC[C@@H](N(CC)c2nc(OC[C@@]34CCCN3C[C@H](F)C4)nc3c(Cl)c(-c4ccc(F)c5sc(N)c(C#N)c45)ncc23)[C@H]1CC [Compound 43] | A (percent of modification ≥70%) | A (percent of modification ≥70%) | ≤ 0.5 µM | 0.1 to 1 µM | A (percent of modification ≥70%) |
